Data reported in patent US9695155B2, “Herbicidal substituted pyrimidinyloxy benzene compounds” (E. I. DU PONT DE NEMOURS AND COMPANY, priority 2013, dated 2017).

Experiments:
[1] = system: velvetleaf; assay: Test A postemergence; type: in vivo, Abutilon theophrasti
Procedure, shortened: (§1)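 Compounds in non-phytotoxic solvent with surfactant applied as soil spray preemergence, or postemergence to plants 2-10 cm at one- to two-leaf stage, in loam/sand. After approximately 10 days in greenhouse, injury rated visually versus untreated controls, 0 (no effect) to 100 (complete control).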

[2] = system: chickweed; assay: Test C postemergence; type: in vivo, Stellaria media
Procedure, shortened: (§2)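 Rated visually on 0–100 (100 = complete control) after 13–15 days under glass. Treatments went onto freshly seeded loam/sand soil or onto emerged plants at the 1- to 4-leaf stage, using a surfactant-containing solvent formulation.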

[3] = system: morningglory; assay: Test A postemergence; type: in vivo, Ipomoea spp.
Procedure, shortened: as §1

[4] = system: velvetleaf; assay: Test C preemergence; type: in vivo, Abutilon theophrasti; conditions: for Velvetleaf plant response rating: preemergence; for Plant response rating, Velvetleaf: Preemergence, 31 g ai/ha, scale 0 to 100, 0 no effect, 100 complete control
Procedure, shortened: as §2

[5] = system: barnyardgrass; assay: Test A postemergence; type: in vivo, Echinochloa crus-galli
Procedure, shortened: as §1

[6] = system: corn; assay: Test A postemergence; type: in vivo, Zea mays
Procedure, shortened: as §1

[7] = system: large (Lg) crabgrass; assay: Test A postemergence; type: in vivo, Digitaria sanguinalis
Procedure, shortened: as §1

[8] = system: galium; assay: Test C postemergence; type: in vivo, Galium aparine
Procedure, shortened: as §2

[9] = system: morningglory; assay: Test C postemergence; type: in vivo, Ipomoea coccinea; conditions: for Plant response rating, Morningglory: scale 0 to 100 (0 no effect, 100 complete control)
Procedure, shortened: as §2

[10] = system: Heteranthera limosa; assay: Test B flooded paddy test; type: in vivo; conditions: Flood, 250 g ai/ha; 0 to 100 scale where 0 is no effect and 100 is complete control
Procedure, shortened: (§3)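 Post-emergence paddy-water application at the 2-leaf stage, with 3 cm flood kept for the whole test. Response was judged visually relative to controls after 13 to 15 greenhouse days, 0 indicating no effect and 100 complete control.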

[11] = system: pigweed; assay: Test C preemergence; type: in vivo, Amaranthus retroflexus; conditions: for Pigweed plant response rating: preemergence; for Plant response rating, Pigweed: Preemergence, 31 g ai/ha, scale 0 to 100, 0 no effect, 100 complete control
Procedure, shortened: as §2

[12] = system: barnyardgrass; assay: Test B flooded paddy test; type: in vivo, Echinochloa crus-galli; conditions: Flood, 250 g ai/ha; 0 to 100 scale where 0 is no effect and 100 is complete control
Procedure, shortened: as §3

[13] = system: yellow nutsedge; assay: Test C preemergence; type: in vivo, Cyperus esculentus; conditions: for Nutsedge, Yellow plant response rating: preemergence; for Plant response rating, Nutsedge, Yellow: Preemergence, 31 g ai/ha, scale 0 to 100, 0 no effect, 100 complete control
Procedure, shortened: as §2

[14] = system: wheat, winter; assay: Test C preemergence; type: in vivo, Triticum aestivum; conditions: for Wheat plant response rating: preemergence; for Plant response rating, Wheat: Preemergence, 31 g ai/ha, scale 0 to 100, 0 no effect, 100 complete control
Procedure, shortened: as §2

[15] = system: giant foxtail; assay: Test A postemergence; type: in vivo, Setaria faberii
Procedure, shortened: as §1

[16] = system: giant foxtail; assay: Test C preemergence; type: in vivo, Setaria faberii; conditions: for Foxtail, Giant plant response rating: preemergence; for Plant response rating, Foxtail, Giant: Preemergence, 31 g ai/ha, scale 0 to 100, 0 no effect, 100 complete control
Procedure, shortened: as §2

[17] = 500 g ai/ha, 0 to 100 scale where 0 is no effect and 100 is complete control
[18] = 16 g ai/ha, postemergence, visual rating, scale 0 to 100 (0 no effect, 100 complete control), 13 to 15 days
[19] = 125 g ai/ha, postemergence, visual rating, scale 0 to 100 (0 no effect, 100 complete control)
[20] = Postemergence, 62 g ai/ha, scale 0 to 100 (0 no effect, 100 complete control)
[21] = 16 g ai/ha, scale 0 to 100 (0 no effect, 100 complete control)
[22] = 62 g ai/ha, scale 0 (no effect) to 100 (complete control)
[23] = 125 g ai/ha, scale 0 (no effect) to 100 (complete control)
[24] = 125 g ai/ha, 0 to 100 scale where 0 is no effect and 100 is complete control
[25] = 125 g ai/ha, postemergence, visual rating
[26] = 1000 g ai/ha, 0 to 100 scale, 0 no effect, 100 complete control
[27] = 16 g ai/ha, postemergence, 0 is no effect, 100 is complete control

SMILES | Plant response rating, Chickweed [2, 19] | Plant response rating, Chickweed [2, 20] | Velvetleaf plant response rating [4, 21] | Velvetleaf plant response rating [4, 22] | Velvetleaf plant response rating [4, 23] | Plant response rating, Velvetleaf [4] | Plant response rating, Galium [8, 19] | Plant response rating, Galium [8, 20] | Plant response rating, Morningglory [9, 25] | Plant response rating, Morningglory ([9]; Postemergence, 62 g ai/ha) | Plant response rating, Ducksalad [10] | Pigweed plant response rating [11, 21] | Pigweed plant response rating [11, 22] | Pigweed plant response rating [11, 23] | Plant response rating, Pigweed [11] | Plant response rating, Barnyardgrass [12] | Nutsedge, Yellow plant response rating [13, 21] | Nutsedge, Yellow plant response rating [13, 22] | Nutsedge, Yellow plant response rating [13, 23] | Plant response rating, Nutsedge, Yellow [13] | also measured
N#Cc1cnn(-c2c(C#N)cccc2Oc2ncc(F)cn2)c1 [Compound 111] | 95 | 75 | 60 | 90 | 100 | 60 | 100 | 90 | 98 | 80 | 70 | 75 | 100 | 100 | 95 | 0 | 0 | 15 | 50 | 0 | Plant response rating, Velvetleaf [1, 17]: 100; Chickweed plant response rating [2, 18]: 50; Plant response rating, Morningglory [3, 17]: 90; Plant response rating, Barnyardgrass [5, 24]: 60; Plant response rating, Barnyardgrass [5, 17]: 90; Plant response rating, Corn [6, 24]: 30; Plant response rating, Corn [6, 17]: 90; Plant response rating, Crabgrass, Large [7, 24]: 60; Plant response rating, Crabgrass, Large [7, 17]: 90; Galium plant response rating [8, 18]: 80; Wheat plant response rating [14, 21]: 0; Wheat plant response rating [14, 22]: 0; Wheat plant response rating [14, 23]: 20; Plant response rating, Wheat [14]: 30; Plant response rating, Foxtail, Giant [15, 24]: 80; Plant response rating, Foxtail, Giant [15, 17]: 90; Foxtail, Giant plant response rating [16, 21]: 15; Foxtail, Giant plant response rating [16, 22]: 100; Foxtail, Giant plant response rating [16, 23]: 100; Plant response rating, Foxtail, Giant [16]: 100
N#Cc1cn(-c2c(Br)cccc2Oc2ncc(Cl)cn2)nn1 [Compound 116] | 80 | 55 | 20 | 100 | 100 | 70 | 80 | 80 | 80 | 60 | 60 | 75 | 100 | 100 | 100 | 0 | 0 | 10 | 40 | 5 | Plant response rating, Velvetleaf [1, 26]: 100; Plant response rating (0 to 100), Chickweed [2, 27]: 40; Plant response rating, Morningglory [3, 26]: 100; Plant response rating, Barnyardgrass [5, 26]: 90; Plant response rating, Corn [6, 26]: 60; Plant response rating, Crabgrass, Large [7, 26]: 100; Plant response rating (0 to 100), Galium [8, 27]: 55; Plant response rating (0 to 100), Morningglory [9, 27]: 50; Wheat plant response rating [14, 21]: 0; Wheat plant response rating [14, 22]: 0; Wheat plant response rating [14, 23]: 5; Plant response rating, Wheat [14]: 0; Plant response rating, Foxtail, Giant [15, 26]: 90; Foxtail, Giant plant response rating [16, 21]: 0; Foxtail, Giant plant response rating [16, 22]: 85; Foxtail, Giant plant response rating [16, 23]: 95; Plant response rating, Foxtail, Giant [16]: 10
